# In US9932288B2, “Chemical compound for inhibition of SHP2 function and for use as an anti-cancer agent” (West Virginia University, priority 2015, dated 2018):
# “And” between values parts separate entries of the source, which are not always exact repeats. Equal values may be shown once.
# What was measured:
# MDA-MB468 cells [1] = experiment: mammosphere formation in suspension culture, MDA-MB468; type: cell-based
# Protocol: (§1) Finally, the effect of CNBDA on the above mentioned breast cancer cells (BT474 and MDA-MB468) was evaluated by the mammosphere formation assay in which cells with stem-like properties (including cancer stem cells) only can survive and form these structures. Briefly, cells were cultured in ultra-low adherence plates (1×10^6 cells per 6 cm plate) in a medium containing serum-free DMEM, 1 μg/ml hydrocortisone, 10 μg/ml insulin, 10 ng/ml EGF, 10 ng/ml FGF, 5 ng/ml heparin, and B27 (Invitrogen). After 10 days of culture, primary mammosphere formation was determined by observation under a microscope at which time pictures of mammospheres was taken at 4×objective. Next, the primary mammospheres were collected by centrifugation at 1000 rpm, dissociated to single cells by trypsination and pipetting, and re-cultured under same conditions to observe effect of SHP2 silencing on secondary mammosphere-forming capacity. Pictures of secondary cultures also were taken after 10 days at 4×objective. […] Similar to the anchorage-independent growth studies, the concentration of CNBDA that led to exhaustion of mammosphere formation was 4-5 fold lower than the amount needed for cell killing in the 2D cultures.
# (§2) Note than the number and size of mammospheres decreases as the concentration of CNBDA increases.
# [2] = test system: EGFR-amplified MDA-MB468 basal-like breast cancer cell line; experiment: 2D culture cell growth and cell death, MDA-MB468; type: cell-based; details: MDA-MB468, 2D culture
# Protocol: (§3) Therefore, the anti-cancer activity of CNBDA was tested in breast cancer cells under 2-dimensional (culture plates), soft agar, and suspension cultures. Because SHP2 is an essential downstream mediator of receptor tyrosine kinase (RTK) signaling, including HER2 and HER1 [24, 25], breast cancer cells that harbor dysregulated RTK and SHP2 signaling were chosen for testing the effect of CNDBA. Accordingly, the BT474 cell line that overexpress the human epidermal growth factor receptor 2 (HER2) and the MDA-MB468 cell line that overexpress HER1 (also known as EGFR) were used. The non-transformed MCF-10A breast epithelial cells were used as a “normal” control in these studies. The BT474 cells were grown in RPMI 1640, while the MDA-MB468 cells were grown in Dulbecco's Modified Eagle's Medium (DMEM), both supplemented with 10% fetal calf serum. On the other hand, the MCF-10A cells were grown in DMEM supplemented with […] recombinant human insulin, 20 ng/ml EGF (PeproTech), […] hydrocortisone, 100 ng/ml cholera toxin (Sigma) and 5% horse serum, as described previously. All cells were grown in a 37° C. incubator supplied with 5% CO2. […] In the HER2-positive BT474 breast cancer cell line, CNBDA suppressed cell growth at the lowest concentration used (100 ng/ml) as determined by absence of gradual increase in cell density (FIG. 6A). […]
# BT474 cells [3] = experiment: mammosphere formation in suspension culture, BT474; type: cell-based
# Protocol: as §1, §2
# BT474 cells [4] = experiment: soft agar anchorage-independent growth, BT474; type: cell-based
# Protocol: (§4) Next, the efficacy of CNBDA was evaluated by the soft agar assay, a technique commonly used to determine ability of cells to grow in an anchorage-independent manner, one of the hall marks of a cancer cell. The HER2-positive BT474 and the HER1-positive MDA-MB468 cells were seeded in soft agar, treated with placebo or CNBDA at variable concentrations, cultured for 10 days, and their ability to form colonies was monitored by observation under a microscope. […] While the placebo-treated BT474 and MDA-MB468 cells formed larger and numerous colonies in 10 days, the CNBDA-treated counterparts formed smaller and fewer ones (FIG. 6B). In addition, the concentration of CNBDA that abolished colony formation in soft agar was at least 4-fold lower than the amount that caused cell death in 2D cultures in both cell lines (compare FIGS. 6A and 6B).
# (§5) Note than the number and size of colonies decreases as the concentration of CNBDA increases. Also note that the concentration of CNBDA that abolished colony formation in the HER2-positive BT474 breast cancer cell line is 2-fold lower than the amount used in the MDA-MB468 cells.
# MDA-MB468 cells [5] = experiment: soft agar anchorage-independent growth, MDA-MB468; type: cell-based
# Protocol: as §4, §5
# [6] = test system: non-tumorigenic MCF-10A breast epithelial cells; experiment: 2D culture cell growth, MCF-10A normal control; type: cell-based
# Protocol: as §3
# [7] = target: T1, PTP domain of SHP2 fused to GST (Homo sapiens, UniProt Q06124); experiment: phosphatase assay with DiFMUP substrate, GST-PTP of SHP2; type: biochemical
# T1 construct: The PTP domains of SHP2 and SHP1 fused to glutathione-S-transferase (GST-PTPs) were expressed in E. coli; GST (N); made in house; host or cells: E. coli
# T1 sequence (Q06124 247-517 limits assumed): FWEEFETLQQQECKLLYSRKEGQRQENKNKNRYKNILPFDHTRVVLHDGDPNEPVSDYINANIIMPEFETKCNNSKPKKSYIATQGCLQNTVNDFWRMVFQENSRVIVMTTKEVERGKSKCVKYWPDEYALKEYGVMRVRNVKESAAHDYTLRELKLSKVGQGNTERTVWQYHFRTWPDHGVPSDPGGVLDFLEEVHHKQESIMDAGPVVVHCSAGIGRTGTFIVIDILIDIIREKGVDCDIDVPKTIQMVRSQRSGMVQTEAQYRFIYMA
# Protocol: (§6) The effect of CNBD on the SHP2 phosphatase activity was tested using the artificial substrate DiFMUP (6,8-difluoro-4-methylumbelliferyl) at a concentration of 20 μM, which is commonly used in phosphatase assays. CNBDA concentrations of 1.94 mM, 194 μM, 97 μM, 48.5 μM, 24.25 μM, 19.4 μM, 12.9 μM, and 1.94 μM in water were used in the analysis. The PTP domains of SHP2 and SHP1 fused to glutathione-S-transferase (GST-PTPs) were expressed in E. coli using a standard protein expression protocol and purified on glutathione sepharose beads as recommended by the manufacturer (Pharmacia), and quantified by measuring absorbance at 280 nm and comparison with BSA standards. Reactions were performed at 30° C. in 100 μl volume of PTPase buffer containing 25 mM Tris-HCl pH7.0, 50 mM NaCl, 2 mM EDTA and 10 mM dithiothreitol (DTT). Change in absorbance (production of DiFMU, dephosphorylated form of DiFMUP) was followed in a plate-reading visible spectrophotometer at 450 nm.
# [8] = test system: HER2-positive BT474 breast cancer cell line; experiment: 2D culture cell growth and cell death, BT474; type: cell-based; details: BT474, 2D culture
# Protocol: Therefore, the anti-cancer activity of CNBDA was tested in breast cancer cells under 2-dimensional (culture plates), soft agar, and suspension cultures. Because SHP2 is an essential downstream mediator of receptor tyrosine kinase (RTK) signaling, including HER2 and HER1 [24, 25], breast cancer cells that harbor dysregulated RTK and SHP2 signaling were chosen for testing the effect of CNDBA. Accordingly, the BT474 cell line that overexpress the human epidermal growth factor receptor 2 (HER2) and the MDA-MB468 cell line that overexpress HER1 (also known as EGFR) were used. The non-transformed MCF-10A breast epithelial cells were used as a “normal” control in these studies. The BT474 cells were grown in RPMI 1640, while the MDA-MB468 cells were grown in Dulbecco's Modified Eagle's Medium (DMEM), both supplemented with 10% fetal calf serum. On the other hand, the MCF-10A cells were grown in DMEM supplemented with […] recombinant human insulin, 20 ng/ml EGF (PeproTech), […] hydrocortisone, 100 ng/ml cholera toxin (Sigma) and 5% horse serum, as described previously. All cells were grown in a 37° C. incubator supplied with 5% CO2. In the 2D culture studies, cells were treated with vehicle alone (PBS: phosphate buffered saline) or three different concentration of CNBDA. When the density of cells reached approximately 30%, each plate was treated with vehicle alone (placebo) or the indicated concentrations of CNBDA. In the HER2-positive BT474 breast cancer cell line, CNBDA suppressed cell growth at the lowest concentration used (100 ng/ml) as determined by absence of gradual increase in cell density (FIG. 6A). But, at the 72 hour time point, it was possible to see signs of cell death as evidenced by shrinkage in the extended patchy growth property of these cells. At 500 ng/ml and higher concentrations, CNBDA induced cell death within 24 hours which became more evident gradually.
# At the lowest concentration used, CNBDA was able to block cell growth and induction of cell death was apparent only after 48 hours. […]
# [9] = target: T2, PTP domain of SHP1 fused to GST (Homo sapiens, UniProt P29350); experiment: phosphatase assay with DiFMUP substrate, GST-PTP of SHP1; type: biochemical; details: DiFMUP 20 μM, 30° C., pH7.0
# T2 construct: The PTP domains of SHP2 and SHP1 fused to glutathione-S-transferase (GST-PTPs) were expressed in E. coli; GST (N); made in house; host or cells: E. coli
# T2 sequence (P29350 244-515 limits assumed): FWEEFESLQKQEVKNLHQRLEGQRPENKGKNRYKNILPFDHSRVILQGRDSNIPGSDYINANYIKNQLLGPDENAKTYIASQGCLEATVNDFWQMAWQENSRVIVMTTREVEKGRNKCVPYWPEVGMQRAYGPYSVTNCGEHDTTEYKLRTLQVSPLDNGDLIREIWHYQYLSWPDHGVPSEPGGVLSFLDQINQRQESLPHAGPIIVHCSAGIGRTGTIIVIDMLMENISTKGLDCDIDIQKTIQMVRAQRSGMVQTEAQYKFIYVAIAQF
# Protocol: as §6
structure (smiles),measurement,setting,value
CCCCCCCCCOc1c(CCCC(=O)O)cc(-c2ccc(C(=O)O)cc2)cc1CCCC(=O)O [CNBDA],"concentration exhausting mammosphere formation, fold lower than amount needed for cell killing in 2D cultures",MDA-MB468 cells [1]; MDA-MB468,4-5 fold
same,mammosphere formation,"MDA-MB468 cells [1]; MDA-MB468, suspension culture, concentration dependent",suppressed mammosphere formation
same,"concentration showing effect, relative to BT474 cells",[2],double the concentration
same,minimum concentration needed to induce cell death after 48 hours,[2]; pilot studies,1 µg/mL
same,"concentration exhausting mammosphere formation, fold lower than amount needed for cell killing in 2D cultures",BT474 cells [3]; BT474,4-5 fold
same,mammosphere formation,"BT474 cells [3]; BT474, suspension culture, concentration dependent",suppressed mammosphere formation
same,"concentration abolishing mammosphere formation in BT474, fold lower than in MDA-MB468",BT474 cells [3]; suspension culture,2 fold
same,"concentration abolishing colony formation, fold lower than amount causing cell death in 2D culture",BT474 cells [4]; BT474,at least 4 fold
same,colony formation in soft agar,"BT474 cells [4]; BT474, 10 days, concentration dependent",suppression of colony formation
same,"concentration abolishing colony formation in BT474, fold lower than in MDA-MB468",BT474 cells [4]; soft agar,2 fold
same,"concentration abolishing colony formation, fold lower than amount causing cell death in 2D culture",MDA-MB468 cells [5]; MDA-MB468,at least 4 fold
same,colony formation in soft agar,"MDA-MB468 cells [5]; MDA-MB468, 10 days, concentration dependent",suppression of colony formation
same,effect on cell growth and cell death at the higher concentration used,[6]; 6 μg/ml,did not cause a significant decrease in cell growth or induce cell death
same,effect on cell growth,[6]; 2D culture,very little effect
same,mode of SHP2 inhibition,[7],competitive SHP2 inhibitor
same,IC50,"[7]; DiFMUP 20 μM, 30° C., pH7.0",12 µM
same,selectivity for SHP2 over SHP1,[7]; from IC50 values,10 fold
same,concentration that induced cell death within 24 hours,[8],≥ 500 ng/mL
same,time at which cell death became apparent at the lowest concentration,[8]; 100 ng/ml,72 h and > 48 h
same,concentration that suppressed cell growth (lowest used),[8]; absence of increase in cell density,100 ng/mL
same,IC50,[9],122 µM
